Test results published in ChEMBL document CHEMBL6134892, “Discovery and Evaluation of DA-302168S as an Efficacious Oral Small-Molecule Glucagon-Like Peptide-1 Receptor Agonist” (J Med Chem, 2025).

Key:
[1] = molecular target: Voltage-gated inwardly rectifying potassium channel KCNH2 (Homo sapiens, UniProt Q12809); test: Inhibition of human ERG by whole-cell patch clamp technique; type: toxicity
[2] = molecular target: hERG (KCNH2) (Homo sapiens, UniProt Q12809); test: Inhibition of human ERG at 30 uM by whole-cell patch clamp technique relative to control; type: toxicity
hERG (KCNH2), sequence (Q12809 whole entry): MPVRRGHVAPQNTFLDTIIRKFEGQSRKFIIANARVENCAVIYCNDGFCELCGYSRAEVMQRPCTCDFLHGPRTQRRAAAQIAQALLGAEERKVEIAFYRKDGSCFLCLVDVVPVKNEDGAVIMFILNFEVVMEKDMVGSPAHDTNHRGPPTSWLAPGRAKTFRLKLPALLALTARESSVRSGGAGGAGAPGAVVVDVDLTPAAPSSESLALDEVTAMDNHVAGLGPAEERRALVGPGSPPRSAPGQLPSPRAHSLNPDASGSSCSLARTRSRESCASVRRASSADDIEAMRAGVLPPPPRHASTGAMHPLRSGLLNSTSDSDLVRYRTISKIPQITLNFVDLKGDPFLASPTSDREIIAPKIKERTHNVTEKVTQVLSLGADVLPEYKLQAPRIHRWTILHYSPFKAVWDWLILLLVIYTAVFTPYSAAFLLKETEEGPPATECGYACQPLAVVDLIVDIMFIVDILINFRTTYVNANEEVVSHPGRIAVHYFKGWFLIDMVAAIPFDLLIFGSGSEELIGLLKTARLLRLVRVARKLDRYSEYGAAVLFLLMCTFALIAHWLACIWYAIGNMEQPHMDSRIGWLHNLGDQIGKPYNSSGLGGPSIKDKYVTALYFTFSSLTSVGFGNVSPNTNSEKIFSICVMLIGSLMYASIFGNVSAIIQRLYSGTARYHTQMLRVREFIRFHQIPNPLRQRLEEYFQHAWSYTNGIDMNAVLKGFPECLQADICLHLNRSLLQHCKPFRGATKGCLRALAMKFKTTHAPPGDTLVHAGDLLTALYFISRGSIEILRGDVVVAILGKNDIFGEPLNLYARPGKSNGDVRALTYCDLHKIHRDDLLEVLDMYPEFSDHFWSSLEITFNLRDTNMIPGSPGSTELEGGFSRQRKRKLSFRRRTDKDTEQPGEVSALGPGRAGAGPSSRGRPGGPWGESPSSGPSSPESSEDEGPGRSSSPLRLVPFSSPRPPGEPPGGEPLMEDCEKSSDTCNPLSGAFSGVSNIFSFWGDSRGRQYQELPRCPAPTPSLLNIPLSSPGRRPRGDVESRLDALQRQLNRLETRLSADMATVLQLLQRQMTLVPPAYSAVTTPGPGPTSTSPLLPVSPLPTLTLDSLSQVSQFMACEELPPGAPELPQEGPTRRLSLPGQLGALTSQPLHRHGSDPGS

[3] = Metabolic stability in human liver microsomes assessed as half life at 1 uM measured after 5 to 45 mins in presence of NADPH by LC-MS/MS analysis; type: ADME, Microsome; details: time 5-45 min
[4] = Metabolic stability in human liver microsomes assessed as intrinsic clearance at 1 uM measured after 5 to 45 mins in presence of NADPH by LC-MS/MS analysis; type: ADME, Microsome; details: time 5-45 min, read-out: CLH
[5] = Metabolic stability in human liver microsomes assessed as hepatic clearance at 1 uM measured after 5 to 45 mins in presence of NADPH by LC-MS/MS analysis; type: ADME, Microsome; details: time 5-45 min
[6] = molecular target: T1, Glucagon-like peptide 1 receptor (Homo sapiens, UniProt P43220); test: Agonist activity at human GLP-1R expressed in HEK293 cells coexpressing CRE LUC incubated for 5 hrs by luciferase based microplate reader analysis; type: functional, cell-based
T1 sequence (P43220 whole entry): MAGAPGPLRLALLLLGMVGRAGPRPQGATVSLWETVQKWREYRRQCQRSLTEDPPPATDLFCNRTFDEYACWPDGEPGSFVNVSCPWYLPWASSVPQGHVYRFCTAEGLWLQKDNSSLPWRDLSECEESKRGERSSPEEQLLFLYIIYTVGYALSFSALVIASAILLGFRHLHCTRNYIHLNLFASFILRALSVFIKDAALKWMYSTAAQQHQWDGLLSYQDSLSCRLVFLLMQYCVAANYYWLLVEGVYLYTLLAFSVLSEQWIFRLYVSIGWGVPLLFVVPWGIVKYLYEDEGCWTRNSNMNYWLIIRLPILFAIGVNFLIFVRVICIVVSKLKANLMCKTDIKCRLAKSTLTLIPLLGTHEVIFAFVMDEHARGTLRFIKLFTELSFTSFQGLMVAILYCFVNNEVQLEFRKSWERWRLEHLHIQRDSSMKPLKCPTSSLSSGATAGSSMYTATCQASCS

[7] = molecular target: T2, Cytochrome P450 1A2 (Homo sapiens, UniProt P05177); test: Inhibition of CYP1A2 in human liver microsomes incubated for 10 mins in presence of NADPH by LC-MS/MS analysis; type: ADME, Microsome
T2 sequence (P05177 whole entry): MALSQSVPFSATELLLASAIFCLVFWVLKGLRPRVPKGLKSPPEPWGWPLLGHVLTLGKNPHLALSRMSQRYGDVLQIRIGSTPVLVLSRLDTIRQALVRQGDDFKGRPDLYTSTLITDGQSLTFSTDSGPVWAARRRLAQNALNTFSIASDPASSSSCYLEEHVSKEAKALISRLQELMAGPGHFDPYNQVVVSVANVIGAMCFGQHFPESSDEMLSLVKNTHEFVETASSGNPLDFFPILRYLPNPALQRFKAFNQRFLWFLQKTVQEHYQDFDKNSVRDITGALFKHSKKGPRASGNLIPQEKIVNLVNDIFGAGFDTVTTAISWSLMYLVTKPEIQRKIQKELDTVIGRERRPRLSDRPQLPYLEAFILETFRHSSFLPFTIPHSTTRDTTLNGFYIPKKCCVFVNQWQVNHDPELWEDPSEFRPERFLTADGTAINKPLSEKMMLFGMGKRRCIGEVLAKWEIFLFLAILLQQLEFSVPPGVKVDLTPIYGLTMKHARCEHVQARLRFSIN

[8] = molecular target: T3, Cytochrome P450 2B6 (Homo sapiens, UniProt P20813); test: Inhibition of CYP2B6 in human liver microsomes incubated for 10 mins in presence of NADPH by LC-MS/MS analysis; type: ADME, Microsome
T3 sequence (P20813 whole entry): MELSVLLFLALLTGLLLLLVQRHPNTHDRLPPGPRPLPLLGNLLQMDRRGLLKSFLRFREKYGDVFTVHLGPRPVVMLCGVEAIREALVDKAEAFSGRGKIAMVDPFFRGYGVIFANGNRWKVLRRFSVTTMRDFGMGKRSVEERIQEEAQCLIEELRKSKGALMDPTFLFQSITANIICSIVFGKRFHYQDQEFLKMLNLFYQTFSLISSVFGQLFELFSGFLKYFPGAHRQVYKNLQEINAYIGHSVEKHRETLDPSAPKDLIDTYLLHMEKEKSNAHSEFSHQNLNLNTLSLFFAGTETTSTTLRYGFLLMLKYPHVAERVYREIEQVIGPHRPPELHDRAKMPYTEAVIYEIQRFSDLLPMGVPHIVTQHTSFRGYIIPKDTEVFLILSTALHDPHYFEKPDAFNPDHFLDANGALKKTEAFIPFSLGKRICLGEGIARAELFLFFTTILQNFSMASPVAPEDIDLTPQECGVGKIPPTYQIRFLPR

[9] = molecular target: T4, Cytochrome P450 2C8 (Homo sapiens, UniProt P10632); test: Inhibition of CYP2C8 in human liver microsomes incubated for 20 mins in presence of NADPH by LC-MS/MS analysis; type: ADME, Microsome
T4 sequence (P10632 whole entry): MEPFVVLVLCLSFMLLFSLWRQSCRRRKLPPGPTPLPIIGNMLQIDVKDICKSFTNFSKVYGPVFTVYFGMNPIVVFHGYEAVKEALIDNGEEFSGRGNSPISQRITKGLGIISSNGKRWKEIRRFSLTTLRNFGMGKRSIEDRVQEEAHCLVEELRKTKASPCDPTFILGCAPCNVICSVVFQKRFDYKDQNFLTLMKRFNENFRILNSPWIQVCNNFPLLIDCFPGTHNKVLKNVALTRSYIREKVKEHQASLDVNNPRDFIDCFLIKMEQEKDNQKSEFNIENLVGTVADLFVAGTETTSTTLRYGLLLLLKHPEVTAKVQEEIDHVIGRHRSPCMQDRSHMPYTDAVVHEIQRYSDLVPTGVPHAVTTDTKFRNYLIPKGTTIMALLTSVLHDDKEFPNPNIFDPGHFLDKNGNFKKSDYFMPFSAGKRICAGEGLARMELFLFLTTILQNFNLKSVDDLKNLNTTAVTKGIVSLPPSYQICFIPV

[10] = molecular target: Cytochrome P450 2C9 (Homo sapiens, UniProt P11712); test: Inhibition of CYP2C9 in human liver microsomes incubated for 10 mins in presence of NADPH by LC-MS/MS analysis; type: ADME, Microsome
Cytochrome P450 2C9, sequence (P11712 whole entry): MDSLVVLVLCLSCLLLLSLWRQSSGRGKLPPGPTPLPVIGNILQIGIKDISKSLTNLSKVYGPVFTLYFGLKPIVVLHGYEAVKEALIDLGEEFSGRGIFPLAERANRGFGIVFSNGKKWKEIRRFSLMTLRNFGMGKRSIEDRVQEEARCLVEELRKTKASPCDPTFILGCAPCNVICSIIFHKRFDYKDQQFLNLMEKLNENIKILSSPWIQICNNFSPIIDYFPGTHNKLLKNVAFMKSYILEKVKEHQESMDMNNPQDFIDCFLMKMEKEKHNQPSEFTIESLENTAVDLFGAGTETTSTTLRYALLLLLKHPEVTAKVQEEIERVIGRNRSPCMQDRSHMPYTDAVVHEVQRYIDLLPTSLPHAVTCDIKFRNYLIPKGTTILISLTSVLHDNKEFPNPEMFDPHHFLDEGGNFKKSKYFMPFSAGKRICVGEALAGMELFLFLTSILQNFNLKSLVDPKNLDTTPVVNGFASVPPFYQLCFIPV

[11] = molecular target: Cytochrome P450 2C19 (Homo sapiens, UniProt P33261); test: Inhibition of CYP2C19 in human liver microsomes incubated for 45 mins in presence of NADPH by LC-MS/MS analysis; type: ADME, Microsome
Cytochrome P450 2C19, sequence (P33261 whole entry): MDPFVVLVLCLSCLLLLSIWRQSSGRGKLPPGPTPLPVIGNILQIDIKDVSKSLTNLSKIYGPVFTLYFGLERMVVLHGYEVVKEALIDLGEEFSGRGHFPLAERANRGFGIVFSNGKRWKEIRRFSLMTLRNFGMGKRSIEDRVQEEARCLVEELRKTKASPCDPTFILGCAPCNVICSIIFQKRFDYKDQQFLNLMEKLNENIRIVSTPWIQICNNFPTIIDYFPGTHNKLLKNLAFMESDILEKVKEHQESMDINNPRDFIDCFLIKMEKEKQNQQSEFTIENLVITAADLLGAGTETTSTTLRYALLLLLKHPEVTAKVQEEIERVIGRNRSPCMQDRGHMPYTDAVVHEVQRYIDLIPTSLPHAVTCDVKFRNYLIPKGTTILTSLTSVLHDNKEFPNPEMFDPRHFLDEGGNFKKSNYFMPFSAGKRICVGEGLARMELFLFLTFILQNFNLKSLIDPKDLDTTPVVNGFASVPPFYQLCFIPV

[12] = molecular target: Cytochrome P450 2D6 (Homo sapiens, UniProt P10635); test: Inhibition of CYP2D6 in human liver microsomes incubated for 20 mins in presence of NADPH by LC-MS/MS analysis; type: ADME, Microsome
Cytochrome P450 2D6, sequence (P10635 whole entry): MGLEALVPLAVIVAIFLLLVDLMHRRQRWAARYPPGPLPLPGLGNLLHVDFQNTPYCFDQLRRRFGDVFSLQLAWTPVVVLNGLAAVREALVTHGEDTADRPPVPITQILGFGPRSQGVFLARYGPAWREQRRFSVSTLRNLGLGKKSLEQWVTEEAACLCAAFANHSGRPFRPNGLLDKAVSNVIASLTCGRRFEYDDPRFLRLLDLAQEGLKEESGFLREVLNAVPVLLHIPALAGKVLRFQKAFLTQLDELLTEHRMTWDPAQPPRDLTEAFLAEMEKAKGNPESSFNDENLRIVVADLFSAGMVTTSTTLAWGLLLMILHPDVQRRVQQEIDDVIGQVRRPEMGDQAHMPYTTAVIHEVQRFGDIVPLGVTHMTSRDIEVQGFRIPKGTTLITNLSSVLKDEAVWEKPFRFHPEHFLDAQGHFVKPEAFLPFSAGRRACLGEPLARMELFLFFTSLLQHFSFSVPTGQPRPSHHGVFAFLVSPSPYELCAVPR

[13] = molecular target: Cytochrome P450 3A4 (Homo sapiens, UniProt P08684); test: Inhibition of CYP3A4 in human liver microsomes using testosterone as substrate incubated for 5 mins in presence of NADPH by LC-MS/MS analysis; type: ADME, Microsome
[14] = molecular target: T5, Glucagon-like peptide 1 receptor (Mus musculus, UniProt O35659); test: Agonist activity at mouse GLP-1R expressed in HEK293 cells by cAMP accumulation assay; type: functional, cell-based
T5 sequence (O35659 whole entry): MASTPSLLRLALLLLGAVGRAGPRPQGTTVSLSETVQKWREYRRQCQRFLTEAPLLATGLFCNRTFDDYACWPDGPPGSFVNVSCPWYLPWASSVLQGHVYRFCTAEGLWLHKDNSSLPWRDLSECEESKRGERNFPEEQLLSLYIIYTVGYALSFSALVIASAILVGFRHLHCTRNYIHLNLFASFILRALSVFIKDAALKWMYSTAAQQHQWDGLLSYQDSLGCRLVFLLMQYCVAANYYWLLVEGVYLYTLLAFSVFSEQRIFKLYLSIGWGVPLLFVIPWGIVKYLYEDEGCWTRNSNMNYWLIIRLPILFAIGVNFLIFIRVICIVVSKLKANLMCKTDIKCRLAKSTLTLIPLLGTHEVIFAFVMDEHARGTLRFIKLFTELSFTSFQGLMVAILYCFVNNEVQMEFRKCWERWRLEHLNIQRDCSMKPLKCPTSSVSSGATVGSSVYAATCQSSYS

[15] = molecular target: T6, Glucagon-like peptide 1 receptor (Rattus norvegicus, UniProt P32301); test: Agonist activity at rat GLP-1R expressed in HEK293 cells by cAMP accumulation assay; type: functional, cell-based
T6 sequence (P32301 whole entry): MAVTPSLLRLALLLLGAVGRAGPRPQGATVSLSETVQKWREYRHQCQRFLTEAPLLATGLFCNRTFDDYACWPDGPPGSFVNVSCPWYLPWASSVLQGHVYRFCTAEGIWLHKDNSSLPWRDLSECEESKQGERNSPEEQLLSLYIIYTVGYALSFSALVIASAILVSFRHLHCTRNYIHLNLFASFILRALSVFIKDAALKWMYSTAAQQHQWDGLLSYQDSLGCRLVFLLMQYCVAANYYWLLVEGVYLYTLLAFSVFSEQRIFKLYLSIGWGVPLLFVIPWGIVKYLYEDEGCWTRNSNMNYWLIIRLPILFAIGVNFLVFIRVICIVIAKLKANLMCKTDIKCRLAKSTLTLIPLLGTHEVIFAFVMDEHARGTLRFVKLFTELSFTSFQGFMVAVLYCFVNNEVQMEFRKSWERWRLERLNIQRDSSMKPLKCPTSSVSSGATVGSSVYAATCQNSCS

[16] = Agonist activity at dog GLP-1R expressed in HEK293 cells by cAMP accumulation assay; details: Canis lupus familiaris
[17] = Agonist activity at cynomolgus monkey GLP-1R expressed in HEK293 cells by cAMP accumulation assay; details: Macaca fascicularis
[18] = molecular target: T1, Glucagon-like peptide 1 receptor; test: Agonist activity at human GLP-1R expressed in HEK293 cells by cAMP accumulation assay; type: functional, cell-based
[19] = molecular target: T1, Glucagon-like peptide 1 receptor; test: Agonist activity at human GLP-1R expressed in HEK293 cells assessed as beta-arrestin recruitment; type: functional, cell-based
[20] = Cmax in Sprague-Dawley rat at 10 mg/kg, po measured up to 24 hrs by LC-MS/MS analysis; type: ADME, organism-based; details: in vivo
[21] = Tmax in Sprague-Dawley rat at 10 mg/kg, po measured up to 24 hrs by LC-MS/MS analysis; type: ADME, organism-based; details: in vivo
[22] = AUC last in Sprague-Dawley rat at 10 mg/kg, po measured up to 24 hrs by LC-MS/MS analysis; type: ADME, organism-based; details: in vivo
[23] = Oral bioavailability in Sprague-Dawley rat at 10 mg/kg measured up to 24 hrs by LC-MS/MS analysis; type: ADME, organism-based; details: in vivo
[24] = AUC last in male Sprague-Dawley rat at 1 mg/kg, iv measured up to 24 hrs by LC-MS/MS analysis; type: ADME, organism-based; details: in vivo
[25] = molecular target: 5-HT1B receptor (Homo sapiens, UniProt P28222); test: Inhibition of 5-HT1B (unknown origin) at 10 uM relative to control; type: toxicity
[26] = molecular target: CB2 (cannabinoid receptor 2) (Homo sapiens, UniProt P34972); test: Inhibition of CB2 (unknown origin) at 10 uM relative to control; type: toxicity
[27] = Half life in Cynomolgus monkey at 0.5 mg/kg, iv measured up to 48 hrs by LC-MS/MS analysis; type: ADME, organism-based, Macaca fascicularis; details: in vivo
[28] = Cmax in Cynomolgus monkey at 5 mg/kg, po measured up to 48 hrs by LC-MS/MS analysis; type: ADME, organism-based, Macaca fascicularis; details: in vivo
[29] = Tmax in Cynomolgus monkey at 5 mg/kg, po measured up to 48 hrs by LC-MS/MS analysis; type: ADME, organism-based, Macaca fascicularis; details: in vivo
[30] = AUC last in Cynomolgus monkey at 5 mg/kg, po measured up to 48 hrs by LC-MS/MS analysis; type: ADME, organism-based, Macaca fascicularis; details: in vivo
[31] = Half life in Cynomolgus monkey at 5 mg/kg, po measured up to 48 hrs by LC-MS/MS analysis; type: ADME, organism-based, Macaca fascicularis; details: in vivo
[32] = Oral bioavailability in Cynomolgus monkey at 5 mg/kg measured up to 48 hrs by LC-MS/MS analysis; type: ADME, organism-based, Macaca fascicularis; details: in vivo
[33] = molecular target: LCK (tyrosine-protein kinase Lck) (Homo sapiens, UniProt P06239); test: Inhibition of LCK (unknown origin) at 10 uM relative to control; type: toxicity
LCK (tyrosine-protein kinase Lck), sequence (P06239 whole entry): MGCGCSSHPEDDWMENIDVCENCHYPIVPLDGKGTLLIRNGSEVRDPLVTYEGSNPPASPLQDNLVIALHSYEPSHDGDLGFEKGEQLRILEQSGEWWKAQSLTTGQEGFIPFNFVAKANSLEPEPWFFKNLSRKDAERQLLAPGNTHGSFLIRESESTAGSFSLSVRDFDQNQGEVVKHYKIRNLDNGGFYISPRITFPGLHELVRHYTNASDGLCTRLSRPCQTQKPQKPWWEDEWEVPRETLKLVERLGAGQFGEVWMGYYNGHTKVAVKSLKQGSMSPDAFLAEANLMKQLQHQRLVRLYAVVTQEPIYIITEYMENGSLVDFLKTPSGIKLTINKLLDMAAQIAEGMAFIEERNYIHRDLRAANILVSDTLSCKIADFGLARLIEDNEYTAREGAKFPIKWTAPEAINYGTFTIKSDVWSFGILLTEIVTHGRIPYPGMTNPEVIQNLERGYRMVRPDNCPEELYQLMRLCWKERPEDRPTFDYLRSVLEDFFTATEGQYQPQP

Voltage-gated inwardly rectifying potassium channel KCNH2, sequence (Q12809 whole entry): as the sequence (Q12809 whole entry) above

O=C(O)c1ccc2nc(Cc3ccc(-c4cccc(OCc5ccc(Cl)c6cc(Cl)oc56)n4)cc3F)n(C[C@@H]3CCO3)c2c1
IC50 [1]: > 30 µM | inhibition at 30 µM [2]: < 50% | half-life at 1 µM [3]: 116 min | CLint scaled at 1 µM [4]: 15 mL/min/kg | CLhep predicted at 1 µM [5]: 8.7 mL/min/kg

Cc1cc2c(Cl)ccc(COc3cccc(-c4ccc(Cc5nc6ccc(C(=O)O)cc6n5C[C@@H]5CCO5)c(F)c4)n3)c2o1
EC50 [6]: 7.55 nM

O=C(O)c1ccc2nc(Cc3ccc(-c4cccc(OCc5ccc(Cl)c6ccoc56)n4)cc3F)n(C[C@@H]3CCO3)c2c1
IC50 [1]: > 30 µM | inhibition at 30 µM [2]: < 50%

O=C(O)c1ccc2nc(Cc3ccc(-c4cncc(OCc5ccc(Cl)c6ccoc56)n4)cc3F)n(C[C@@H]3CCO3)c2c1
EC50 [6]: 70.9 nM

O=C(O)c1ccc2nc(Cc3ccc(-c4ccc(F)c(OCc5ccc(Cl)c6ccoc56)n4)cc3F)n(C[C@@H]3CCO3)c2c1
EC50 [6]: 1.32 nM | IC50 [1]: > 30 µM | inhibition at 30 µM [2]: < 50% | half-life at 1 µM [3]: 131 min | CLint scaled at 1 µM [4]: 13.3 mL/min/kg | CLhep predicted at 1 µM [5]: 8.09 mL/min/kg | IC50 [7]: > 30 µM | IC50 [8]: > 30 µM | IC50 [9]: 28.3 µM | IC50 [10]: > 30 µM | IC50 [11]: > 30 µM | IC50 [12]: > 30 µM | IC50 [13]: > 30 µM | EC50 [14]: > 30 µM | EC50 [15]: > 30 µM | EC50 [16]: > 30 µM | EC50 [17]: 0.012 nM | EC50 [18]: 0.029 nM | EC50 [19]: 118 nM | Cmax [20]: 347 ng/mL | Tmax [21]: 3.5 h | AUC(0-t) at 24 h [22]: 2960 ng·h/mL | bioavailability [23]: 20.1% | AUC(0-t) at 24 h [24]: 1480 ng·h/mL | inhibition at 10 µM [25]: 62.4% | inhibition at 10 µM [26]: 74.4% | half-life [27]: 762 min | Cmax [28]: 327 ng/mL | Tmax [29]: 2.5 h | AUC(0-t) at 48 h [30]: 2440 ng·h/mL | half-life [31]: 624 min | bioavailability [32]: 13.9% | inhibition at 10 µM [33]: 87.5%
